Experimental data from patent US10959979B2, “Small molecules against cancer” (Biokine Therapeutics Ltd., priority 2015, dated 2021).
≈ marks a conversion by molar mass, not a printed value.

What was measured:
440 kinases = assay: LanthaScreen europium kinase binding assay, screen of 440 kinases; set-up: species or system human
Method: (§1) In order to further characterize the effect of BKT300 on cell signaling, kinase profiling of BKT300 (at 78% purity) was performed (by the Life Technologies SelectScreen® Biochemical Profiling Lab) using a LanthaScreen® europium kinase binding assay to screen 440 kinases.
(§2) The principle of the LanthaScreen® assay is depicted in FIG. 48. Binding of an Alexa Fluor® conjugate or “tracer” to a kinase is detected by addition of a europium (Eu)-labeled anti-tag antibody. Binding of the tracer and antibody to a kinase results in a high degree of FRET, whereas displacement of the tracer with a kinase inhibitor results in a loss of FRET. The kinase tracers are based on ATP-competitive kinase inhibitors, making them suitable for detection of any compounds that bind to the ATP site. Inhibitors that bind the ATP site include both Type I kinase inhibitors, which bind solely to the ATP site, and Type II inhibitors (e.g., imatinib, sorafenib, BIRB-796), which bind to both the ATP site and a second site often referred to as the allosteric site.

SDF-1 = SDF-1 (Homo sapiens, UniProt P48061); assay: Migration of Jurkat cells towards SDF-1 (Transwell migration assay); type: cell-based; details: for Inhibition of migration of lymphocytic Jurkat cells towards SDF-1: 10 μg/ml
SDF-1, sequence (P48061 22-93): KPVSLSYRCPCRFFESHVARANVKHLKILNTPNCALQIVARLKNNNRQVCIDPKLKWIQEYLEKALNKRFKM
Method: (§3) 600 μl of RPMI medium was added to the lower chambers of Transwell® transmigration plates, supplemented with 2 μg/ml of MIP3a, 100 ng/ml of SDF-1 or 10 ng/ml of MCP-1. The tested small molecule was added to the lower chambers at the indicated concentration, except in control samples. The MIP3a, SDF-1 or MCP-1 was incubated with the small molecule for 30 minutes at room temperature before the initiation of the migration assay. Following 30 minutes of incubation 2×10^5 immune cells were added to the upper chambers of the transmigration plates in a total volume of 100 μl. Cells which migrated within 3 hours to the bottom chamber of the Transwell® plates were counted using a FACScalibur™ flow cytometer.
To evaluate migration towards SDF-1, Jurkat cells were re-suspended in RPMI medium containing 1% fetal calf serum (FCS).

[1] = system: Bjab human lymphoma cells; assay: Cancer cell viability, FACS with propidium iodide staining; type: cell-based; details: 8.5 μg/ml; BKT300 at 78% purity
Method: (§4) In order to assess the effect of compounds of Table 2 on cancer cell viability, the in vitro effect of the compounds on MV4-11 human acute myeloid leukemia cells was evaluated. The cancer cells were incubated in RPMI cell medium with 1% fetal calf serum (FCS) at a concentration of 2×10^5 cells/well at a final volume of 250 μl in 96-well plate. The compounds were added to the cells at the indicated concentrations. The cells were incubated for 24 hours and the number of dead and viable cells was then evaluated by fluorescence-activated cell sorting (FACS), using propidium iodide (PI) staining.
(§5) The in vitro effect of BKT300 (at 78% purity) on cancer cell viability was further evaluated using a variety of additional cancer cell lines, using procedures as described hereinabove with respect to MV4-11 cells.

[2] = system: RPMI human multiple myeloma cells; assay: as above; type: cell-based; details: BKT300 at 78% purity; concentrations as low as 2 μg/ml (the lowest tested concentration)
Method: as §4, §5

[3] = system: H460 human large cell lung cancer cells; assay: as above; type: cell-based; details: 10 μg/ml; BKT300 at 78% purity
Method: as §4, §5

[4] = system: H345 human small cell lung cancer cells; assay: as above; type: cell-based; details: 8.5 μg/ml; BKT300 at 78% purity
Method: as §4, §5

[5] = system: Jurkat human acute lymphoblastic leukemia cells; assay: as above; type: cell-based; details: BKT300 at 78% purity
Method: as §4, §5

[6] = system: Raji human lymphoma cells; assay: as above; type: cell-based; details: BKT300 at 78% purity
Method: as §4, §5

[7] = system: MV4-11 human acute myeloid leukemia cells; assay: as above; type: cell-based
Method: as §4

MCP-1 = MCP-1 (Homo sapiens, UniProt P13500); assay: Migration of THP-1 cells towards MCP-1 (Transwell migration assay); type: cell-based; details: BKT300 at 78% purity
MCP-1, sequence (P13500 24-99): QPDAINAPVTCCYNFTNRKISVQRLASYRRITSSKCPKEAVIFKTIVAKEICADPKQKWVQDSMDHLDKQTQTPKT
Method: as §3
To evaluate migration towards MCP-1, THP-1 cells were re-suspended in RPMI medium containing 1% fetal calf serum (FCS).

MIP3a = MIP3a (Homo sapiens, UniProt P78556); assay: Migration of CD4+ T-cells toward MIP3a (Transwell migration assay); type: cell-based; details: 50 μg/ml; BKT300 at 78% purity
MIP3a, sequence (P78556 27-96): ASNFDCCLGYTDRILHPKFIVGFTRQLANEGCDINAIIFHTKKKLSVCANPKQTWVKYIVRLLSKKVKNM
Method: as §3
To evaluate migration toward MIP3a, peripheral blood mononuclear cells (PBMCs) were isolated from heparinized venous blood by centrifugation over Ficoll Histopaque® 1077. CD4+ T cells were further isolated with RosetteSep™ human CD4+ T-cell Enrichment cocktail (StemCell Technologies Inc.), according to the manufacturer's instructions. CD4+ T cells were re-suspended in RPMI medium containing 1% fetal calf serum (FCS).

MLCK (MLCK2) = target: T1, MLCK (MLCK2) (Homo sapiens, UniProt Q32MK0); assay: LanthaScreen europium kinase binding assay; details: BKT300 at 78% purity
T1 sequence (Q32MK0 1-819): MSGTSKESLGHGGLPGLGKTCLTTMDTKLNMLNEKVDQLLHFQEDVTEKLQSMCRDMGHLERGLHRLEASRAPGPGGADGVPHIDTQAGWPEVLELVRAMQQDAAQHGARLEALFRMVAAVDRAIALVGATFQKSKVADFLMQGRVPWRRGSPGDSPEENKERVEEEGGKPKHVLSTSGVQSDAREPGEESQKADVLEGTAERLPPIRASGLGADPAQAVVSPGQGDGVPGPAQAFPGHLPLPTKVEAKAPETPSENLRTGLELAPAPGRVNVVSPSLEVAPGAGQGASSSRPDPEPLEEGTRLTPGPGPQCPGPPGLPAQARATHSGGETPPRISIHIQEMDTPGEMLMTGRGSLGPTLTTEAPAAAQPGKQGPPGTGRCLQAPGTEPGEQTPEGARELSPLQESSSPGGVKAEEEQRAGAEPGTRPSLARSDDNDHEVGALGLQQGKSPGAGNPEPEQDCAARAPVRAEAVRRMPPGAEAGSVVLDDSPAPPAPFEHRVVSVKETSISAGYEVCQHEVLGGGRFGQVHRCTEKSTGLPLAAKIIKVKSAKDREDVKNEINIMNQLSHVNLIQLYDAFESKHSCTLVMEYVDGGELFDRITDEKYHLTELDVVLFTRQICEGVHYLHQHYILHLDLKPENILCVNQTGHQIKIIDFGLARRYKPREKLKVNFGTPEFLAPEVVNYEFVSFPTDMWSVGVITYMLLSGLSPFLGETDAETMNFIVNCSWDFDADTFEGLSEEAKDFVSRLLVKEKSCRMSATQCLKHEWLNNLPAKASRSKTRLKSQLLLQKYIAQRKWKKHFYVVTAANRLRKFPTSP
Method: as §1, §2

MV4-11 (FLT3-ITD) cells = assay: AML cells in vivo: NSG mice transplanted with MV4-11 cells; set-up: species or system NOD scid gamma (NSG) mice; details: BKT300 at 98% purity; 1 mg/Kg intraperitoneally for three consecutive days from day 21; day 25; anti human CD45
Method: The effect of BKT300 (at 98% purity) on the proliferation of AML cells in vivo was examined by treatment of NOD scid gamma (NSG) mice transplanted with MV4-11 (FLT3-ITD) cells.
The mice were subjected to irradiation with 300 rad and on the following day were transplanted by IV injection with MV4-11 (FLT3-ITD) cells, 10×10^6 cells/mouse. 21 days following transplantation, the treated group was injected intraperitoneally with 1 mg/Kg of BKT300 (98% purity) per injection for three consecutive days. On day 25 following transplantation, mice were sacrificed and the survival of the human AML blasts in the blood, spleen and the bone marrow was evaluated using anti human CD45.

CCCCCc1cc2cc(O)cc(Oc3c(O)cc(O)cc3CCCCC)c2c(=O)o1 [BKT300]
Inhibition of 36 of the 440 screened kinases (440 kinases; BKT300 at 78% purity): more than 40%
Affinity of BKT300 to kinases, based on the kinase screening assay (440 kinases; estimated from Table 3): few tens
Inhibition of migration of lymphocytic Jurkat cells towards SDF-1 (SDF-1; BKT300 at 78% purity): significantly inhibited
Inhibition of migration of lymphocytic Jurkat cells towards SDF-1 (SDF-1; BKT300 at 98% purity): significantly inhibited
Selectivity of inhibition of SDF-1 function over MCP-1 and/or MIP3a function (SDF-1; at a concentration of about 10 μg/ml): relatively selective manner
Cell death of Bjab cells [1]: about 30%
Cell death of RPMI cells [2]: induced cell death
Cell death of H460 cells [3]: about 80%
Cell death of H345 cells [4]: over 90%
Cell death of Jurkat cells ([5]; concentrations as low as 2 μg/ml (the lowest tested concentration)): induced cell death
IC50 ([5]; Homo sapiens, Jurkat, read-out: IC50 for BKT300-induced death of Jurkat cells): 3.5 µg/mL (≈ 8.21 µM)
Cell death of Raji cells ([6]; 4.25 μg/ml): slight cell death
Cell death of Raji cells ([6]; 8.5 μg/ml): about 30%
Degree of cell death of MV4-11 cells, 98% purity compared with 78% purity ([7]; 4.25 μg/ml, BKT300 at 98% purity vs 78% purity): considerably greater degree of cell death
Cell death of MV4-11 cells ([7]; BKT300 at 78% purity, concentrations as low as 2 μg/ml (the lowest tested concentration), 24 hours): induced cell death
Induction of cell death of MV4-11 cells, 98% purity compared with 78% purity ([7]; BKT300 at 98% purity vs BKT300 at 78% purity): significantly more effective
IC50 ([7]; Homo sapiens, MV4-11, BKT300 at 78% purity, 24 hours, read-out: IC50 for induced death of MV4-11 cells): 2.72 µg/mL (≈ 6.38 µM)
Inhibition of migration of monocytic THP-1 cells towards MCP-1 (MCP-1; 10 μg/ml): no apparent effect
Inhibition of migration of monocytic THP-1 cells towards MCP-1 (MCP-1; 50 μg/ml): strong inhibition
Inhibition of CD4+ T-cell migration towards MIP3a (MIP3a): completely inhibited
% Inhibition (MLCK (MLCK2)): 58%
Number and percentage of AML cells in the bone marrow of mice (MV4-11 (FLT3-ITD) cells): dramatically reduced
